Test results reported in US10799605B2 (3B PHARMACEUTICALS GMBH, priority 2014, dated 2020).
Read-outs that look alike come from different tables or passages of the source. Values belong to the compound of their own block, whether it stands above or below them.

Assays:
[1] = molecular target: T1, NTR1 (Homo sapiens (Human), UniProt P30989); assay: Radioligand binding assay NTR1 (example part II); details: 0.05 nM 125I-(Tyr3-neurotensin), 60 min at 4° C.; read-out: IC50 [nM] RLB
Experimental: (§1) In order to determine the binding affinity of compounds comprising a radiolabel for NTR1, a radioligand binding assay was carried out. A radioligand is a radioactive biochemical substance that is used for diagnosis or for research-oriented study of cellular receptor systems of the body. In […] systems it is often used to quantify the binding of a test molecule to the binding site of radioligand. The higher the affinity of the molecule, the more radioligand is displaced from the binding site. The amount of bound radioligand can be measured by scintillation counting and thereby quantified. This assay is commonly used to calculate binding constants of molecules to receptors.
(§2) The NTR1 radioligand binding assay was performed by Cerep (Celle l'Evescault, France; Catalog reference 0109) according to Vita et al., FEBS Lett., 1993, 317, 139-142. NTR1 was prepared from CHO cells recombinantly expressing the human receptor and incubated with 0.05 nM ^125I-(Tyr^3-neurotensin) and serial dilutions of the test compounds. […] The result for each test compound is expressed as IC50 concentration and provides a measure for the affinity of the test compound for NTR1.

[2] = molecular target: T1, NTR1; assay: Functional Ca2+ mobilisation assay (example part II); type: cell-based; details: antagonist assay
Description: (§3) Ca^2+ ions are usually kept at nanomolar levels in the cytosol of cells, and act in a number of signal transduction pathways as second messengers. […] Changes in calcium ion concentration in standard assay protocols can be readily detected with fluorescent dyes that emit light when changes in intracellular Ca2^+ ion concentration occur. Given the transient nature of these responses, they are often read with instrumentation that has ‘inject and read’ capability.
(§4) HT29 or NTR1-expressing HEK293 cells were trypsinized and seeded into black flat clear-bottom 96-well plates (Corning, Amsterdam, The Netherlands) at 6×10^5 cells per well. After 24 h incubation at 37° C. and 5% CO2, cells were washed twice with wash buffer (130 mM NaCl, 5 mM KCl, 10 mM Hepes, 2 mM CaCl2, 10 mM Glucose, pH 7.4) and loaded with 100 μl of Ca5 dye (Molecular Devices, Biberach, Germany) for 1 h at 37° C. and 5% CO2. For agonist assays, serial dilutions of agonistic substances were added to the cells loaded with dye and the change of the fluorescent signal was recorded continually for approx. 90 s using a FlexStation II (Molecular Devices, Biberach, Germany). Addition of wash buffer served as a control. Thus, EC50 concentrations for each compound were computed and provided a measure for the potency of the substance. For antagonist assays, cells loaded with 100 μl of Ca5-dye were pre-incubated with serial dilutions of antagonistic substances for 30 min, before the EC80-concentration of agonist was added to the cells and the change of the fluorescent signal was recorded continually for approx. 90 s. Thus, IC50 concentrations were computed for each compound and provided a measure for the inhibitory activity of the compounds at the NTR1.

[3] = molecular target: T1, NTR1; assay: Radioligand binding assay NTR1 (example part I)
Experimental: as §1, §2

[4] = molecular target: T1, NTR1; assay: Functional Ca2+ mobilisation assay (example part I); type: cell-based
Description: as §3, with “Ca^2+” for “Ca2^+”
as §4, with “conjugate” for “compound”, “conjugates” for “compounds”

[5] = 0.05 nM 125I-(Tyr3-neurotensin), 60 min at 4° C., read-out: IC50
[6] = agonist assay, * bell-shaped curves, EC50 from ascending part of the curve, read-out: Agonistic Effect EC50
[7] = antagonist assay, 30 min pre-incubation, EC80-concentration of agonist, read-out: Antagonistic Effect IC50

T1 sequence (P30989 whole entry): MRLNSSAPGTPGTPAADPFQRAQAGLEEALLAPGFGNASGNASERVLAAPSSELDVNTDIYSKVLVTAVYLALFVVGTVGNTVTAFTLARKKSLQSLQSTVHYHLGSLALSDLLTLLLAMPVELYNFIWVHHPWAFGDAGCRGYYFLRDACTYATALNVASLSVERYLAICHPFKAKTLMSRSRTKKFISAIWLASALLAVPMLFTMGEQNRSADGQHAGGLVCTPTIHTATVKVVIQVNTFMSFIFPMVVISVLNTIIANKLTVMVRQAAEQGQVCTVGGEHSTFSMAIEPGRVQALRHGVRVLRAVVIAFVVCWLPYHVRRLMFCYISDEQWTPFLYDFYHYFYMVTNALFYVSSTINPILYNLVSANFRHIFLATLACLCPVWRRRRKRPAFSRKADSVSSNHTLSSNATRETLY

Structure (SMILES): COc1cccc(OC)c1-c1cc(C(=O)NC2(C(=O)O)C3CC4CC(C3)CC2C4)nn1-c1ccc(C(=O)N(CCCN)CCCN(C)C)cc1C(C)C (stereo not shown) [(V), 2-{[1-{4-[(3-Amino-propyl)-(3-dimethylamino-propyl)-carbamoyl]-2-isopropyl-phenyl}-5-(2,6-dimethoxy-phenyl)-1H-pyrazole-3-carbonyl]-amino}-adamantane-2-carboxylic acid]
IC50 [1]: 5.3 nM
IC50 [2]: 8.95 nM

Structure (SMILES): COc1cccc(OC)c1-c1cc(C(=O)NC2(C(=O)O)C3CC4CC(C3)CC2C4)nn1-c1ccc(C(=O)N(C)CCCN(C)CCCN(C)C(=O)CCCC(=O)NCCCOCCOCCOCCCNC(=O)CCC(=O)N[C@@H](CCCCNC(=O)CN2CCN(CC(=O)O)CCN(CC(=O)O)CCN(CC(=O)O)CC2)C(=O)NCCCOCCOCCOCCCNC(=O)CCC(=O)NCCCC(=O)N[C@@H](CC(N)=O)C(=O)N[C@@H](C)C(=O)N[C@H](C(=O)N2CCC[C@H]2C(=O)N[C@@H](CC(N)=O)C(=O)N[C@@H](CC(C)C)C(=O)N[C@@H](CCCNC(=N)N)C(=O)NCC(=O)N[C@@H](CC(=O)O)C(=O)N[C@@H](CC(C)C)C(=O)N[C@@H](CCC(N)=O)C(=O)N[C@H](C(=O)N[C@@H](CC(C)C)C(=O)N[C@@H](C)C(=O)N[C@@H](CCC(N)=O)C(=O)N[C@@H](CCCCN)C(=O)N[C@H](C(=O)N[C@@H](C)C(=O)N[C@@H](CCCNC(=N)N)C(=O)N[C@H](C(N)=O)[C@@H](C)O)C(C)C)C(C)C)C(C)C)cc1C(C)C (stereo partly shown) [(21)]
IC50 [3]: 10 nM
EC50 [4]: > 50000 nM
IC50 [4]: 18 nM

Structure (SMILES): COc1cccc(OC)c1-c1cc(C(=O)NC2(C(=O)O)C3CC4CC(C3)CC2C4)nn1-c1ccc(C(=O)N(C)CCCN(C)CCCN(C)C(=O)CCCNC(=O)[C@H](CCCCNC(=O)CN2CCN(CC(=O)O)CCN(CC(=O)O)CCN(CC(=O)O)CC2)NC(=O)CCCC(=O)N(C)CCCN(C)CCCN(C)C(=O)c2ccc(-n3nc(C(=O)NC4(C(=O)O)C5CC6CC(C5)CC4C6)cc3-c3c(OC)cccc3OC)c(C(C)C)c2)cc1C(C)C (stereo partly shown) [(13), 1206-Glutar-Lys(DOTA)-GABA-1206]
IC50 [3, 5]: 2.2 nM
EC50 [4, 6]: > 50000 nM
IC50 [4, 7]: 6.1 nM

Structure (SMILES): COc1cccc(OC)c1-c1cc(C(=O)NC2(C(=O)O)C3CC4CC(C3)CC2C4)nn1-c1ccc(C(=O)N(C)CCCN(C)CCCN(C)C(=O)CCCC(=O)NCCCCCC(=O)N[C@@H](CCCCNC(=O)CN2CCN(CC(=O)O)CCN(CC(=O)O)CCN(CC(=O)O)CC2)C(=O)N[C@@H](CCCCNC(=O)CCCC(=O)N(C)CCCN(C)CCCN(C)C(=O)c2ccc(-n3nc(C(=O)NC4(C(=O)O)C5CC6CC(C5)CC4C6)cc3-c3c(OC)cccc3OC)c(C(C)C)c2)C(N)=O)cc1C(C)C (stereo partly shown) [(14), 1206-Glutar-Ahx-Lys(DOTA)-(ε-Lys-NH2)-Glutar-1206]
IC50 [3, 5]: 2.4 nM
EC50 [4, 6]: > 50000 nM
IC50 [4, 7]: 2.3 nM

Structure (SMILES): COc1cccc(OC)c1-c1cc(C(=O)NC2(C(=O)O)C3CC4CC(C3)CC2C4)nn1-c1ccc(C(=O)N(C)CCCN(C)CCCN(C)C(=O)CCCC(=O)NCCCOCCOCCOCCCNC(=O)CCC(=O)N[C@@H](CCCCNC(=O)CN2CCN(CC(=O)O)CCN(CC(=O)O)CCN(CC(=O)O)CC2)C(=O)NCCCOCCOCCOCCCNC(=O)CCC(=O)NCCCC(=O)N[C@H](CCCNC(=N)N)C(=O)N[C@@H](CCCNC(=N)N)C(=O)N2CCC[C@H]2C(=O)N[C@@H](Cc2ccc(O)cc2)C(=O)N[C@H](C(=O)N[C@@H](CC(C)C)C(=O)O)C(C)(C)C)cc1C(C)C (stereo partly drawn) [(17), 1206-Glutar-Ttds-Lys(DOTA)-Ttds-GABA-arg-Arg-Pro-Tyr-Tle-Leu-OH]
IC50 [3]: 0.32 nM
EC50 [4]: 7 nM
IC50 [4]: 3.4 nM
shape of EC50 curve ([4]; agonist assay): bell-shaped EC50 curves

Further lines, results first:

IC50 [1]: 3 nM
IC50 [2]: 17.5 nM
Structure (SMILES): COc1cccc(OC)c1-c1cc(C(=O)NC2(C(=O)O)C3CC4CC(C3)CC2C4)nn1-c1ccc(C(=O)N(C)CCCN(C)CCCN(C)C(=S)Nc2ccc(NC(=S)NCCCCCN(O)C(=O)CCC(=O)NCCCCCN(O)C(=O)CCC(=O)NCCCCCN(O)C(C)=O)cc2)cc1C(C)C (stereo not shown) [(IIIf), 2-({5-(2,6-Dimethoxy-phenyl)-1-[2-isopropyl-4-(methyl-{3-[methyl-(3-{1-methyl-3-[4-(3-DFO-thioureido)-phenyl]-thioureido}-propyl)-amino]-propyl}-carbamoyl)-phenyl]-1H-pyrazole-3-carbonyl}-amino)-adamantane-2-carboxylic]

IC50 [1]: 4.9 nM
IC50 [2]: 21.4 nM
Structure (SMILES): COc1cccc(OC)c1-c1cc(C(=O)NC2(C(=O)O)C3CC4CC(C3)CC2C4)nn1-c1ccc(C(=O)N(C)CCCN(C)CCCN(C)C(=O)CCC(=O)NCCCOCCOCCOCCCNC(=O)CCC(C(=O)O)N2CCN(CC(=O)O)CCN(CC(=O)O)CC2)cc1C(C)C (stereo not shown) [(IIIe), 2-{[1-(4-{[3-({3-[(NODAGA-Ttds)-methyl-amino]-propyl}-methyl-amino)-propyl]-methyl-carbamoyl}-2-isopropyl-phenyl)-5-(2,6-dimethoxy-phenyl)-1H-pyrazole-3-carbonyl]-amino}-adamantane-2-carboxylic acid]

IC50 [1]: 2.3 nM
IC50 [2]: 14.5 nM
Structure (SMILES): COc1cccc(OC)c1-c1cc(C(=O)NC2(C(=O)O)C3CC4CC(C3)CC2C4)nn1-c1ccc(C(=O)N(C)CCCN(C)CCCN(C)C(=O)c2ccc(F)cc2)cc1C(C)C (stereo not shown) [(IIIg), 2-{[5-(2,6-Dimethoxy-phenyl)-1-(4-{[3-({3-[(4-fluoro-benzoyl)-methyl-amino]-propyl}-methyl-amino)-propyl]-methyl-carbamoyl}-2-isopropyl-phenyl)-1H-pyrazole-3-carbonyl]-amino}-adamantane-2-carboxylic acid]

IC50 [1]: 5.7 nM
IC50 [2]: 11.8 nM
Structure (SMILES): COc1cccc(OC)c1-c1cc(C(=O)NC2(C(=O)O)C3CC4CC(C3)CC2C4)nn1-c1ccc(C(=O)N(C)CCCN(C)CCCN(C)C(=O)CCCCCNC(=O)CN2CCN(CC(=O)O)CCN(CC(=O)O)CCN(CC(=O)O)CC2)cc1C(C)C (stereo not shown) [(IIIc), 2-{[1-(4-{[3-({3-[(DOTA-Ahx)-methyl-amino]-propyl}-methyl-amino)-propyl]-methyl-carbamoyl}-2-isopropyl-phenyl)-5-(2,6-dimethoxy-phenyl)-1H-pyrazole-3-carbonyl]-amino}-adamantane-2-carboxylic acid]

IC50 [1]: 3.7 nM
IC50 [2]: 14.5 nM
Structure (SMILES): COc1cccc(OC)c1-c1cc(C(=O)NC2(C(=O)O)C3CC4CC(C3)CC2C4)nn1-c1ccc(C(=O)N(C)CCCN(C)CCCN(C)C(=O)CCC(C(=O)O)N2CCN(CC(=O)O)CCN(CC(=O)O)CC2)cc1C(C)C (stereo not shown) [(IIId), 2-{[1-(4-{[3-({3-[(NODAGA)-methyl-amino]-propyl}-methyl-amino)-propyl]-methyl-carbamoyl}-2-isopropyl-phenyl)-5-(2,6-dimethoxy-phenyl)-1H-pyrazole-3-carbonyl]-amino}-adamantane-2-carboxylic acid]
